Measurements as given in patent US20180228780A1, “3-(1H-PYRROLO[2,3-C]PYRIDIN-2-YL)-1H-INDAZOLES AND THERAPEUTIC USES THEREOF” (Samumed, LLC, priority 2015, published 2018).

What was measured:
Type in all cases: cell-based
IL-6 (THP-1 cells) = assay: IL-6 inhibition in THP-1 monocytes (HTRF); details: Homo sapiens; for inhibition at 10 µM: THP-1, read-out: percentage in parentheses printed under EC50 >10; for EC50: IL-6 inhibition, THP-1 cells, HTRF, 10-point dose-response starting from 10 μM
Method: Compound Screening: THP-1 cells were cultured in basal media with 1% FBS for 24 hours before the start of the assay. […] THP-1 cells were plated at 5000 cells/well in the 384-well plates and incubated at 37° C. for 2 h. 500 ng/mL of […] was added after 2 hours and cells were incubated for another 22 hours at 37° C. Plates were spun in a centrifuge for 1 minute at 10,000 rpm and a mixture of anti-IL6 XL665, and anti-IL6 Cryptate diluted in reconstitution buffer (Cisbio Inc.) was added to each well. Following incubation for 3 hrs at room temperature, Homogeneous Time-Resolved Fluorescence (HTRF) was measured using the Envision (Perkin Elmer) at 665 nm and […]. The ratio of fluorescence at 665 nm to 620 nm was used as a readout for IL6 quantification. All samples were processed in duplicate. Readings were normalized to DMSO treated cells and normalized activities were utilized for EC50 calculations using the dose-response log (inhibitor) vs. response-variable slope (four parameters) nonlinear regression feature available in GraphPad Prism 5.0 (or Dotmatics).

[1] = test system: Wnt activity (Sp5-Luc reporter, SW480 colon carcinoma cells); assay: Screening assay for Wnt activity: Sp5-Luc reporter gene assay in SW480 cells; details: Homo sapiens; for EC50: SW480 Sp5-Luc reporter, overnight incubation
Text: The screening assay for Wnt activity is described as follows. Reporter cell lines can be generated by stably transducing cancer cell lines (e.g., colon cancer) or primary cells (e.g., IEC-6 intestinal cells) with a lentiviral construct that includes a Wnt-responsive promoter driving expression of the firefly luciferase gene.
SW480 colon carcinoma cells were transduced with a lentiviral vector expressing luciferase with a human Sp5 promoter consisting of a sequence of eight TCF/LEF binding sites. SW480 cells stably expressing the Sp5-Luc reporter gene and a hygromycin resistance gene were selected by treatment with 150 μg/mL of hygromycin for 7 days. These stably transduced SW480 cells were expanded in cell culture and used for all further screening activities. […] For Sp5-Luc reporter gene assays, the cells were plated at 4,000 cells/well in 384-well plates with medium containing 1% fetal bovine serum and incubated overnight at 37° C. and 5% CO2. Following incubation, 20 μl of BrightGlo luminescence reagent (Promega) was added to each well of the 384-well assay plates. The plates were placed on an orbital shaker for 2 min and then luminescence was quantified using the Envision (Perkin Elmer) plate reader. Readings were normalized to DMSO only treated cells, and normalized activities were utilized for EC50 calculations using the dose-response log (inhibitor) vs. response-variable slope (four parameters) nonlinear regression feature available in GraphPad Prism 5.0 (or Dotmatics).

[2] = test system: Primary human fibroblasts derived from IPF patients (LL29 cells); assay: Inhibition of the fibrotic process: αSMA staining in TGF-β1-treated LL29 fibroblasts; details: Fibroblast; for EC50: 96 h, LL29 cells, TGF-β1 20 ng/mL, 4 days, % αSMA-positive cells; for inhibition at 10 µM: read-out: percent inhibition at 10 μM
Text: Representative compounds were screened using primary human fibroblasts (derived from IFF patients) treated with TGF-β1 to determine their ability to inhibit the fibrotic process.
K. L., et.al., “RhoA signaling modulates cyclin D1 expression in human lung fibroblasts; implications for idiopathic pulmonary fibrosis”, Respiratory Research (2006), 7(1), 88] were obtained from American Type Culture Collection (ATCC) and expanded in F12 medium supplemented with 15% Fetal Bovine Serum and Penicillin/Streptomycin.
LL29 cells are plated at 1,500 cells/well in 80 μL/well F12 medium supplemented with 1% Fetal Bovine Serum. […] Wells treated with TGF-β1 and containing DMSO were used as controls. […] Following incubation for 4 days, SYTOX green nucleic acid stain (Life Technologies [Thermo Fisher Scientific]) was added to the wells at a final concentration of 1 μM and incubated at room temperature for 30 min.

[3] = test system: primary human mesenchymal stem cells (hMSCs); assay: Induction of chondrogenesis in hMSCs (nodule imaging, Rhodamine B / Nile Red); details: 6 days
Text: Representative compounds were screened using primary human mesenchymal stem cells (hMSCs) to determine their ability to induce chondrogenesis (process by which cartilage is developed).
Primary human mesenchymal stem cells (hMSCs) were purchased from Lonza (Walkersville, Md.) and expanded in Mesenchymal Stem Cell Growth Media (Lonza). Cells between passage 3 and 6 were used for the experiments.
Area of nodules in each well was normalized to the average of 3 DMSO treated wells on the same plate using Excel (Microsoft Inc.). The normalized averages (fold change over DMSO) of 2 or 3 replicate wells for each compound concentration were calculated. Due to solubility limitations of some of the compounds, curve fitting was incomplete leading to inaccurate EC50 determinations.
Using TGF-β3 as a positive control, the concentration of representative compounds required to induce 50% levels of chondrogenesis is reported. In addition, the maximum activity of each compound and the respective dose that each compound reached maximum chondrogenesis activity is reported.

SW480 colon cancer cells = assay: Cell viability assay (CellTiter-Blue) in SW480 colon cancer cells; details: Homo sapiens; for EC50: 96 h, SW480 cell viability, four days incubation; for inhibition at 10 µM: SW480, read-out: percent inhibition at 10 μM
Method: Representative compounds were screened using the following assay procedure to assess the effect on cell viability as described below.
Approximately 2×10^3 SW480 colon cancer cells were seeded into each well and allowed to incubate in the presence or absence of compound for four days at 37° C./5% CO2. Eight replicates of DMSO-treated cells served as controls and cells treated with compound were performed in duplicate.
After incubation, 20 μL of CellTiter-Blue (Promega) was added to each well allowed to incubate for approximately 3 hours. This reagent was a buffered solution which contains resazurin, metabolically active cells were able to reduce rezarurin (blue) into resorufin (pink) which was highly fluorescent. This measured fluorescence was used as a readout for cell viability.

Row | EC50 (IL-6 (THP-1 cells)) [nM] | EC50 [1] [nM] | EC50 ([3]; concentration required to induce 50% levels of chondrogenesis vs TGF-β3, read-out: Conc (nM) of 50% TGF-β3 activity) [nM] | EC50 (SW480 colon cancer cells) [nM] | Structure (SMILES) | inhibition at 10 µM (IL-6 (THP-1 cells)) [%] | EC50 [2] [nM] | Emax ([3]; relative to TGF-β3 (10 ng/mL) positive control, read-out: Max. Activity as % TGF-β3 activity) [%] | inhibition at 10 µM (SW480 colon cancer cells) [%] | inhibition at 10 µM [2] [%] | inhibition at 10 µM ([1]; SW480, read-out: percent inhibition at 10 μM) [%]
1 | > 10000 | 8250 | 30 | > 10000 | CN1CCN(c2cncc3[nH]c(-c4n[nH]c5ccc(-c6cncc(N)c6)cc45)cc23)CC1 [Compound 227, 5-(3-(4-(4-Methylpiperazin-1-yl)-1H-pyrrolo[2,3-c]pyridin-2-yl)-1H-indazol-5-yl)pyridin-3-amine] | 48.5 | 5310 | 51 | 37.2 |  | 
2 | 219 | 418 |  | 570 | c1cc(-c2cncc3[nH]c(-c4n[nH]c5ccc(-c6cncc(CN7CCCCC7)c6)cc45)cc23)co1 [Compound 323, 3-(4-(Furan-3-yl)-1H-pyrrolo[2,3-c]pyridin-2-yl)-5-(5-(piperidin-1-ylmethyl)pyridin-3-yl)-1H-indazole] |  | 1390 |  |  |  | 
3 | > 10000 | 2150 |  | 2010 | CS(=O)(=O)NCc1cc(F)cc(-c2cncc3[nH]c(-c4n[nH]c5ccc(-c6cncc(OCc7ccccc7)c6)cc45)cc23)c1 [Compound 774, N-(3-(2-(5-(5-(Benzyloxy)pyridin-3-yl)-1H-indazol-3-yl)-1H-pyrrolo[2,3-c]pyridin-4-yl)-5-fluorobenzyl)methanesulfonamide] | 45 | 1490 |  |  |  | 
4 | 1100 | 730 |  | 693 | CC(C)(C)CC(=O)Nc1cncc(-c2ccc3[nH]nc(-c4cc5c(-c6ccccc6F)cncc5[nH]4)c3c2)c1 [Compound 72, N-(5-(3-(4-(2-Fluorophenyl)-1H-pyrrolo[2,3-c]pyridin-2-yl)-1H-indazol-5-yl)pyridin-3-yl)-3,3-dimethylbutanamide] |  | 593 |  |  |  | 
5 | 783 | 395 |  | 1380 | Fc1cccc(-c2cncc3[nH]c(-c4n[nH]c5ccc(-c6cccnc6)cc45)cc23)c1 [Compound 4, 3-(4-(3-Fluorophenyl)-1H-pyrrolo[2,3-c]pyridin-2-yl)-5-(pyridin-3-yl)-1H-indazole] |  | 1630 |  |  |  | 
6 | 574 | 3480 |  | > 10000 | CS(=O)(=O)NCc1cc(F)cc(-c2cncc3[nH]c(-c4n[nH]c5ccc(-c6cncc(NC(=O)Cc7ccccc7)c6)cc45)cc23)c1 [Compound 486, N-(5-(3-(4-(3-Fluoro-5-(methylsulfonamidomethyl)phenyl)-1H-pyrrolo[2,3-c]pyridin-2-yl)-1H-indazol-5-yl)pyridin-3-yl)-2-phenylacetamide] |  | 4770 |  | 45.4 |  | 
7 | 1540 | 3650 |  | > 10000 | Nc1cncc(-c2ccc3[nH]nc(-c4cc5c(N6CCCCC6)cncc5[nH]4)c3c2)c1 [Compound 171, 5-(3-(4-(Piperidin-1-yl)-1H-pyrrolo[2,3-c]pyridin-2-yl)-1H-indazol-5-yl) pyridin-3-amine] |  | > 10000 |  | 43 | 9.8 | 
8 | 796 | 630 |  | 923 | Fc1ccccc1-c1cncc2[nH]c(-c3n[nH]c4ccc(-c5cncc(CN6CCC(F)(F)C6)c5)cc34)cc12 [Compound 82, 5-(5-((3,3-Difluoropyrrolidin-1-yl)methyl)pyridin-3-yl)-3-(4-(2-fluorophenyl)-1H-pyrrolo[2,3-c]pyridin-2-yl)-1H-indazole] |  | 648 |  |  |  | 
9 | 436 | 1830 |  | 1350 | Fc1ccccc1-c1cncc2[nH]c(-c3n[nH]c4ccc(-c5cncc(OC6CCNCC6)c5)cc34)cc12 [Compound 544, 3-(4-(2-Fluorophenyl)-1H-pyrrolo[2,3-c]pyridin-2-yl)-5-(5-(piperidin-4-yloxy)pyridin-3-yl)-1H-indazole] |  | 2760 |  |  |  | 
10 | 4450 | 1120 |  | 1980 | c1ncc(-c2ccc3[nH]nc(-c4cc5c(N6CCCCC6)cncc5[nH]4)c3c2)cc1OC1CCCCC1 [Compound 607, 5-(5-(Cyclohexyloxy)pyridin-3-yl)-3-(4-(piperidin-1-yl)-1H-pyrrolo[2,3-c]pyridin-2-yl)-1H-indazole] |  | 647 |  |  |  | 
11 | 42 | 2540 |  | > 10000 | CS(=O)(=O)NCc1cc(F)cc(-c2cncc3[nH]c(-c4n[nH]c5ccc(-c6cncnc6)cc45)cc23)c1 [Compound 503, N-(3-Fluoro-5-(2-(5-(pyrimidin-5-yl)-1H-indazol-3-yl)-1H-pyrrolo[2,3-c]pyridin-4-yl)benzyl)methanesulfonamide] |  | > 10000 |  | 20.3 | 17.1 | 
12 | 6480 | > 10000 |  | 2160 | Fc1ccccc1-c1cncc2[nH]c(-c3n[nH]c4ccc(-c5ccccn5)cc34)cc12 [Compound 84, 3-(4-(2-Fluorophenyl)-1H-pyrrolo[2,3-c]pyridin-2-yl)-5-(pyridin-2-yl)-1H-indazole] |  | 1910 |  |  |  | 45.9
13 | 397 | 1730 |  | 3440 | CCCCC(=O)Nc1cncc(-c2ccc3[nH]nc(-c4cc5c(-c6cc(F)cc(CNS(C)(=O)=O)c6)cncc5[nH]4)c3c2)c1 [Compound 495, N-(5-(3-(4-(3-Fluoro-5-(methylsulfonamidomethyl)phenyl)-1H-pyrrolo[2,3-c]pyridin-2-yl)-1H-indazol-5-yl)pyridin-3-yl)pentanamide] |  | > 10000 |  |  | 3.3 | 
14 | 6420 | 1240 |  | 1220 | O=C(Nc1cncc(-c2ccc3[nH]nc(-c4cc5c(-c6ccccc6F)cncc5[nH]4)c3c2)c1)C1CCCC1 [Compound 78, N-(5-(3-(4-(2-Fluorophenyl)-1H-pyrrolo[2,3-c]pyridin-2-yl)-1H-indazol-5-yl)pyridin-3-yl)cyclopentanecarboxamide] |  | 1410 |  |  |  | 

Row | Structure (SMILES) | EC50 (IL-6 (THP-1 cells)) [nM] | EC50 [1] [nM] | EC50 ([3]; concentration required to induce 50% levels of chondrogenesis vs TGF-β3, read-out: Conc (nM) of 50% TGF-β3 activity) [nM] | EC50 (SW480 colon cancer cells) [nM] | inhibition at 10 µM (IL-6 (THP-1 cells)) [%] | EC50 [2] [nM] | Emax ([3]; relative to TGF-β3 (10 ng/mL) positive control, read-out: Max. Activity as % TGF-β3 activity) [%] | inhibition at 10 µM (SW480 colon cancer cells) [%] | inhibition at 10 µM [2] [%] | inhibition at 10 µM ([1]; SW480, read-out: percent inhibition at 10 μM) [%]
15 | Fc1ccc(-c2cncc3[nH]c(-c4n[nH]c5ccc(C6=CCNCC6)cc45)cc23)cc1 [Compound 522, 3-(4-(4-Fluorophenyl)-1H-pyrrolo[2,3-c]pyridin-2-yl)-5-(1,2,3,6-tetrahydropyridin-4-yl)-1H-indazole] | > 10000 | 3980 |  | 1670 | 22 | 2690 |  |  |  | 
